Source: ChEMBL document CHEMBL1150190, “Lyngbyatoxins B and C, two new irritants from Lyngbya majuscula” (J Nat Prod, 1990)

Assays:
[1] = Displacement of [3H]12-O-tetradecanoyl-phorbol-13-acetate from TPA receptor
Mus musculus = species: Mus musculus; assay: Toxicity in mouse by ear irritant test; type: organism-based; conditions: in vivo

| SMILES | ED50 [1] | Activity (Mus musculus) |
| --- | --- | --- |
| C=C[C@@](C)(CCC(O)C(=C)C)c1ccc2c3c(c[nH]c13)C[C@@H](CO)NC(=O)[C@H](C(C)C)N2C (some centres undefined) [LYNGBYATOXI B] | 2200 nM | Toxic |
| C=C[C@@](C)(C/C=C/C(C)(C)O)c1ccc2c3c(c[nH]c13)C[C@@H](CO)NC(=O)[C@H](C(C)C)N2C [LYNGBYATOXIN C] | 200 nM | Toxic |
